Results published in US20070287699A1, “ANTIVIRAL AGENTS” (ViroBay, Inc., priority 2006, published 2007).

Each compound was assayed on HCV replicon RNA replication in human Huh7 hepatoma cells (assay: HCV replicon assay (activity levels from either or both of HCV replicon assay 1, Huh7/Clone A RT-qPCR, and assay 2, Huh7 ET luc-ubi-neo/ET)). Settings: Hepatitis C virus, Huh-7, either or both HCV replicon assays: Huh7/Clone A, 48 hours, 72 hours, Luc activity or RT-PCR, read-out: inhibit HCV replication at IC50 levels or estimated IC50 levels.
Assay type: cell-based, Hepatitis C virus (HCV)
How it was run: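 Huh7/Clone A subgenomic replicon cells treated 48 h at 37° C. with 7 serial dilutions in triplicate (0.5% DMSO final). Replicon RNA measured by TaqMan RT-qPCR on the neo gene, normalized to RiboGreen total RNA; untreated cells set as 100% for IC50.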

`CN1CCN(c2cc3c(cc2F)c(=O)c(-c2noc(C(CCCCN)c4ccccc4)n2)cn3Cc2ccc(Cl)cc2)CC1` (centres unmarked) [Compound 82, 3-[5-(5-amino-1-phenyl-pentyl)-[1,2,4]oxadiazol-3-yl]-1-(4-chloro-benzyl)-6-fluoro-7-(4-methyl-piperazin-1-yl)-1H-quinolin-4-one] and `CC(=O)NCCCCC(c1ccccc1)c1nc(-c2cn(Cc3ccc(Cl)cc3)c3cc(N4CCN(C)CC4)c(F)cc3c2=O)no1` (centres unmarked) [Compound 85, N-(5-{3-[1-(4-chloro-benzyl)-6-fluoro-7-(4-methyl-piperazin-1-yl)-4-oxo-1,4-dihydro-quinolin-3-yl]-[1,2,4]oxadiazol-5-yl}-5-phenyl-pentyl)-acetamide] cannot be ordered by IC50: < 10 µM for the first, < 2 µM for the second.

Compared with `O=c1c(-c2noc(Cc3ccccc3)n2)cn(Cc2ccc(C(F)(F)F)cc2)c2cc(N(CCO)CCO)c(F)cc12` [Compound 83, 3-(5-benzyl-[1,2,4]oxadiazol-3-yl)-7-[bis-(2-hydroxy-ethyl)-amino]-6-fluoro-1-(4-trifluoromethyl-benzyl)-1H-quinolin-4-one], `CN(CC(N)=O)c1cc2c(cc1F)c(=O)c(-c1noc(Cc3ccccc3)n1)cn2Cc1ccc(C(F)(F)F)cc1` [Compound 97, 2-{[3-(5-benzyl-[1,2,4]oxadiazol-3-yl)-6-fluoro-4-oxo-1-(4-trifluoromethyl-benzyl)-1,4-dihydro-quinolin-7-yl]-methyl-amino}-acetamide] is higher in IC50: < 10 µM for the first, > 10 µM for the second.

Going from `O=c1c(-c2noc(Cc3ccccc3)n2)cn(Cc2ccc(C(F)(F)F)cc2)c2cc(-n3ccnc3)c(F)cc12` [Compound 84, 3-(5-benzyl-[1,2,4]oxadiazol-3-yl)-6-fluoro-7-imidazol-1-yl-1-(4-trifluoromethyl-benzyl)-1H-quinolin-4-one] to `O=c1c(-c2noc(Cc3ccccc3)n2)cn(Cc2ccc(C(F)(F)F)cc2F)c2ccccc12` [Compound 94, 3-(5-benzyl-[1,2,4]oxadiazol-3-yl)-1-(2-fluoro-4-trifluoromethyl-benzyl)-1H-quinolin-4-one], the IC50 rises from < 2 µM to > 10 µM.

`CN1CCN(c2cc3c(cc2F)c(=O)c(-c2noc(C(CCCCNC(=O)OC(C)(C)C)c4ccccc4)n2)cn3Cc2ccc(Cl)cc2)CC1` (centres unmarked) [Compound 86, tert-butyl (5-{3-[1-(4-chloro-benzyl)-6-fluoro-7-(4-methyl-piperazin-1-yl)-4-oxo-1,4-dihydro-quinolin-3-yl]-[1,2,4]oxadiazol-5-yl}-5-phenyl-pentyl)-carbamate] and `CN1CCN(c2cc3c(cc2F)c(=O)c(-c2noc(C(CCCC(N)=O)c4ccccc4)n2)cn3Cc2ccc(C(F)(F)F)cc2F)CC1` (centres unmarked) [Compound 89, 5-{3-[6-fluoro-1-(2-fluoro-4-trifluoromethyl-benzyl)-7-(4-methyl-piperazin-1-yl)-4-oxo-1,4-dihydro-quinolin-3-yl]-[1,2,4]oxadiazol-5-yl}-5-phenyl-pentanamide] cannot be ordered by IC50: < 10 µM for the first, < 0.5 µM for the second.

`O=C1CN(c2cc3c(cc2F)c(=O)c(-c2noc(Cc4ccc(F)cc4)n2)cn3Cc2ccc(C(F)(F)F)cc2F)CCN1` [Compound 87, 6-fluoro-3-[5-(4-fluoro-benzyl)-[1,2,4]oxadiazol-3-yl]-1-(2-fluoro-4-trifluoromethyl-benzyl)-7-(3-oxo-piperazin-1-yl)-1H-quinolin-4-one] and `CN1CCN(c2cc3c(cc2F)c(=O)c(-c2noc(Cc4ccc(F)cc4)n2)cn3Cc2cccc(C(F)(F)F)c2)CC1` [Compound 91, 6-fluoro-3-[5-(4-fluoro-benzyl)-[1,2,4]oxadiazol-3-yl]-7-(4-methyl-piperazin-1-yl)-1-(3-trifluoromethyl-benzyl)-1H-quinolin-4-one] cannot be ordered by IC50: < 0.5 µM for the first, < 2 µM for the second.

First: CN1CCN(c2cc3c(cc2F)c(=O)c(-c2noc(C(CCCC#N)c4ccccc4)n2)cn3Cc2ccc(C(F)(F)F)cc2F)CC1 (centres unmarked) [Compound 88a, 5-{3-[6-fluoro-1-(2-fluoro-4-trifluoromethyl-benzyl)-7-(4-methyl-piperazin-1-yl)-4-oxo-1,4-dihydro-quinolin-3-yl]-[1,2,4]oxadiazol-5-yl}-5-phenyl-pentanenitrile]
Second: N#CCCCC(c1ccccc1)c1nc(-c2cn(Cc3ccc(C(F)(F)F)cc3F)c3ccccc3c2=O)no1 (centres unmarked) [Compound 95, 5-{3-[1-(2-fluoro-4-trifluoromethyl-benzyl)-4-oxo-1,4-dihydro-quinolin-3-yl]-[1,2,4]oxadiazol-5-yl}-5-phenyl-pentanenitrile]
The IC50 of the first is lower: < 0.5 µM for the first, > 10 µM for the second. The first is the more potent here.

`CN1CCN(c2cc3c(cc2F)c(=O)c(-c2noc(Cc4ccc(F)cc4)n2)cn3C2(c3ccc(C(F)(F)F)cc3)CC2)CC1` [Compound 88b, 6-fluoro-3-[5-(4-fluoro-benzyl)-[1,2,4]oxadiazol-3-yl]-7-(4-methyl-piperazin-1-yl)-1-[1-(4-trifluoromethyl-phenyl)-cyclopropyl]-1H-quinolin-4-one] and `CN1CCN(c2cc3c(cc2F)c(=O)c(-c2noc(C(C)(C)c4ccccc4)n2)cn3C2(c3ccc(C(F)(F)F)cc3)CC2)CC1` [Compound 96, 6-fluoro-3-[5-(1-methyl-1-phenyl-ethyl)-[1,2,4]oxadiazol-3-yl]-7-(4-methyl-piperazin-1-yl)-1-[1-(4-trifluoromethyl-phenyl)-cyclopropyl]-1H-quinolin-4-one] cannot be ordered by IC50: < 2 µM for the first, < 0.5 µM for the second.

Going from `CN1CCN(c2cc3c(cc2F)c(=O)c(-c2noc(C4(c5ccccc5)CC4)n2)cn3C2(c3ccc(C(F)(F)F)cc3)CC2)CC1` [Compound 90, 6-fluoro-7-(4-methyl-piperazin-1-yl)-3-[5-(1-phenyl-cyclopropyl)-[1,2,4]oxadiazol-3-yl]-1-[1-(4-trifluoromethyl-phenyl)-cyclopropyl]-1H-quinolin-4-one] to `CN1CCN(c2cc3c(cc2F)c(=O)c(-c2noc(C(C)(C)c4ccccc4)n2)cn3Cc2cccc(C(F)(F)F)c2)CC1` [Compound 98, 6-fluoro-3-[5-(1-methyl-1-phenyl-ethyl)-[1,2,4]oxadiazol-3-yl]-7-(4-methyl-piperazin-1-yl)-1-(3-trifluoromethyl-benzyl)-1H-quinolin-4-one], the IC50 falls from > 10 µM to < 0.5 µM.

`CN1CCN(c2cc3c(cc2F)c(=O)c(-c2noc(C(C)(C)c4ccccc4)n2)cn3Cc2ccc(Cl)nc2)CC1` [Compound 92, 1-(6-chloro-pyridin-3-ylmethyl)-6-fluoro-3-[5-(1-methyl-1-phenyl-ethyl)-[1,2,4]oxadiazol-3-yl]-7-(4-methyl-piperazin-1-yl)-1H-quinolin-4-one] and `CC(C)(c1ccccc1)c1nc(-c2cn(Cc3ccc(C(F)(F)F)cc3)c3cc(N4CCSCC4)c(F)cc3c2=O)no1` [Compound 101, 6-fluoro-3-[5-(1-methyl-1-phenyl-ethyl)-[1,2,4]oxadiazol-3-yl]-7-thiomorpholin-4-yl-1-(4-trifluoromethyl-benzyl)-1H-quinolin-4-one] cannot be ordered by IC50: < 0.5 µM for the first, < 0.5 µM for the second.

Going from `NC(=O)CCCC(c1ccccc1)c1nc(-c2cn(Cc3ccc(C(F)(F)F)cc3F)c3ccccc3c2=O)no1` (centres unmarked) [Compound 99, 5-{3-[1-(2-fluoro-4-trifluoromethyl-benzyl)-4-oxo-1,4-dihydro-quinolin-3-yl]-[1,2,4]oxadiazol-5-yl}-5-phenyl-pentanoic acid amide] to `CC(C)(c1ccccc1)c1nc(-c2cn(Cc3ccc(C(F)(F)F)cc3)c3cc(N4CCS(=O)(=O)CC4)c(F)cc3c2=O)no1` [Compound 100, 7-(1,1-dioxo-thiomorpholin-4-yl)-6-fluoro-3-[5-(1-methyl-1-phenyl-ethyl)-[1,2,4]oxadiazol-3-yl]-1-(4-trifluoromethyl-benzyl)-1H-quinolin-4-one], the IC50 falls from > 10 µM to < 0.5 µM.
